From patent US20240425500A1 (priority 2021, published 2024)

Columns and labels:
[1] = test system: Pythium ultimum; experiment: Pythium ultimum / liquid culture (seedling damping off); type: cell-based; conditions: Globisporangium ultimum, liquid culture in PDB, 24 °C, 2-3 days after application, read-out: control of Pythium ultimum (inhibition of growth, photometric) compared to untreated control
Summary of the method: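 Mycelia fragments and oospores from fresh liquid culture mixed into potato dextrose broth and added to compound in DMSO. Incubated at 24° C.; growth inhibition read photometrically 2–3 days after application.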

[2] = test system: Phytophthora infestans; experiment: whole plant or invertebrate; type: in vivo; conditions: in Solanum lycopersicum, foliar, read-out: control of Phytophthora infestans compared to untreated control
[3] = test system: Plasmopara viticola; experiment: whole plant or invertebrate; type: in vivo; conditions: foliar, read-out: control of Plasmopara viticola compared to untreated control

COC(=O)Nc1ccc(-c2cnc3ccc(C(=O)N(C)c4ccc(F)c(OC)c4)cn23)cn1 [Compound 45, methyl N-[5-[6-[(4-fluoro-3-methoxy-phenyl)-methyl-carbamoyl]imidazo[1,2-a]pyridin-3-yl]-2-pyridyl]carbamate]
≥ 80%: inhibition at 20 ppm [1] | pest or weed control at 200 ppm [2] | pest or weed control at 200 ppm [3]

COC(=O)Nc1ccc(-c2cnc3ccc(C(=O)N(C)c4ccc(Cl)c(C)c4)cn23)cn1 [Compound 46, methyl N-[5-[6-[(4-chloro-3-methyl-phenyl)-methyl-carbamoyl]imidazo[1,2-a]pyridin-3-yl]-2-pyridyl]carbamate]
≥ 80%: inhibition at 20 ppm [1] | pest or weed control at 200 ppm [2] | pest or weed control at 200 ppm [3]

COC(=O)Nc1ccc(-c2cnc3ccc(C(=O)N(C)c4ccc(F)c(C)c4)cn23)cn1 [Compound 48, methyl N-[5-[6-[(4-fluoro-3-methyl-phenyl)-methyl-carbamoyl]imidazo[1,2-a]pyridin-3-yl]-2-pyridyl]carbamate]
≥ 80%: inhibition at 20 ppm [1] | pest or weed control at 200 ppm [2] | pest or weed control at 200 ppm [3]

COC(=O)Nc1ccc(-c2cnc3ccc(C(=O)N(C)c4ccc(F)c(F)c4)cn23)cn1 [Compound 50, methyl N-[5-[6-[(3,4-difluorophenyl)-methyl-carbamoyl]imidazo[1,2-a]pyridin-3-yl]-2-pyridyl]carbamate]
≥ 80%: inhibition at 20 ppm [1] | pest or weed control at 200 ppm [2] | pest or weed control at 200 ppm [3]

COC(=O)Nc1ccc(-c2cnc3ccc(C(=O)N(C)c4ccc(C#N)c(OC)c4)cn23)cn1 [Compound 51, methyl N-[5-[6-[(4-cyano-3-methoxy-phenyl)-methyl-carbamoyl]imidazo[1,2-a]pyridin-3-yl]-2-pyridyl]carbamate]
≥ 80%: inhibition at 20 ppm [1] | pest or weed control at 200 ppm [2] | pest or weed control at 200 ppm [3]

COC(=O)Nc1ccc(-c2cnc3ccc(C(=O)N(C)c4ccc(C#N)c(C)c4)cn23)cn1 [Compound 53, methyl N-[5-[6-[(4-cyano-3-methyl-phenyl)-methyl-carbamoyl]imidazo[1,2-a]pyridin-3-yl]-2-pyridyl]carbamate]
≥ 80%: inhibition at 20 ppm [1] | pest or weed control at 200 ppm [2] | pest or weed control at 200 ppm [3]

COC(=O)Nc1ccc(-c2cnc3ccc(C(=O)N(C)c4cccc(C(F)F)c4)cn23)cn1 [Compound 57, methyl N-[5-[6-[[3-(difluoromethyl)phenyl]-methyl-carbamoyl]imidazo[1,2-a]pyridin-3-yl]-2-pyridyl]carbamate]
≥ 80%: inhibition at 20 ppm [1] | pest or weed control at 200 ppm [2] | pest or weed control at 200 ppm [3]

COC(=O)Nc1ccc(-c2cnc3ccc(C(=O)N(C)c4cccc(OC)c4)cn23)cn1 [Compound 63, methyl N-[5-[6-[(3-methoxyphenyl)-methyl-carbamoyl]imidazo[1,2-a]pyridin-3-yl]-2-pyridyl]carbamate]
≥ 80%: inhibition at 20 ppm [1] | pest or weed control at 200 ppm [2] | pest or weed control at 200 ppm [3]

COC(=O)Nc1ccc(-c2cnc3ccc(C(=O)N(C)c4ccnc(OC)c4)cn23)cn1 [Compound 70, methyl N-[5-[6-[(2-methoxy-4-pyridyl)-methyl-carbamoyl]imidazo[1,2-a]pyridin-3-yl]-2-pyridyl]carbamate]
≥ 80%: inhibition at 20 ppm [1] | pest or weed control at 200 ppm [2] | pest or weed control at 200 ppm [3]

COC(=O)Nc1ccc(-c2cnc3ccc(C(=O)N(C)c4cccc(I)c4)cn23)cn1 [Compound 73, methyl N-[5-[6-[(3-iodophenyl)-methyl-carbamoyl]imidazo[1,2-a]pyridin-3-yl]-2-pyridyl]carbamate]
≥ 80%: inhibition at 20 ppm [1] | pest or weed control at 200 ppm [2] | pest or weed control at 200 ppm [3]

COC(=O)Nc1ccc(-c2cnc3ccc(C(=O)N(C)c4ccc(Cl)c(OC)c4)cn23)cn1 [Compound 75, methyl N-[5-[6-[(4-chloro-3-methoxy-phenyl)-methyl-carbamoyl]imidazo[1,2-a]pyridin-3-yl]-2-pyridyl]carbamate]
≥ 80%: inhibition at 20 ppm [1] | pest or weed control at 200 ppm [2] | pest or weed control at 200 ppm [3]

COCCN(C(=O)c1ccc2ncc(-c3ccc(NC(=O)OC)nc3)n2c1)c1ccc(F)cc1 [Compound 76, methyl N-[5-[6-[(4-fluorophenyl)-(2-methoxyethyl)carbamoyl]imidazo[1,2-a]pyridin-3-yl]-2-pyridyl]carbamate]
≥ 80%: inhibition at 20 ppm [1] | pest or weed control at 200 ppm [2] | pest or weed control at 200 ppm [3]

COC(=O)Nc1ccc(-c2cnc3c(C)cc(C(=O)N(C)c4ccc(F)cc4)cn23)cn1 [Compound 82, methyl N-[5-[6-[(4-fluorophenyl)-methyl-carbamoyl]-8-methyl-imidazo[1,2-a]pyridin-3-yl]-2-pyridyl]carbamate]
≥ 80%: inhibition at 20 ppm [1] | pest or weed control at 200 ppm [2] | pest or weed control at 200 ppm [3]

COC(=O)Nc1ccc(-c2cnc3c(OC)cc(C(=O)N(C)c4ccc(F)cc4)cn23)cn1 [Compound 84, methyl N-[5-[6-[(4-fluorophenyl)-methyl-carbamoyl]-8-methoxy-imidazo[1,2-a]pyridin-3-yl]-2-pyridyl]carbamate]
≥ 80%: inhibition at 20 ppm [1] | pest or weed control at 200 ppm [2] | pest or weed control at 200 ppm [3]

COC(=O)Nc1ccc(-c2cnc3c(Cl)cc(C(=O)N(C)c4ccc(F)cc4)cn23)cn1 [Compound 85, methyl N-[5-[8-chloro-6-[(4-fluorophenyl)-methyl-carbamoyl]imidazo[1,2-a]pyridin-3-yl]-2-pyridyl]carbamate]
≥ 80%: inhibition at 20 ppm [1] | pest or weed control at 200 ppm [2] | pest or weed control at 200 ppm [3]

COC(=O)Nc1ccc(-c2cnc3cc(C)c(C(=O)N(C)c4ccc(F)cc4)cn23)cn1 [Compound 86, methyl N-[5-[6-[(4-fluorophenyl)-methyl-carbamoyl]-7-methyl-imidazo[1,2-a]pyridin-3-yl]-2-pyridyl]carbamate]
≥ 80%: inhibition at 20 ppm [1] | pest or weed control at 200 ppm [2] | pest or weed control at 200 ppm [3]

COC(=O)Nc1ccc(-c2cnc3ccc(C(=O)N(CC#N)c4ccc(F)c(OC)c4)cn23)cn1 [Compound 89, methyl N-[5-[6-[cyanomethyl-(4-fluoro-3-methoxy-phenyl)carbamoyl]imidazo [1,2-a]pyridin-3-yl]-2-pyridyl]carbamate]
≥ 80%: inhibition at 20 ppm [1] | pest or weed control at 200 ppm [2] | pest or weed control at 200 ppm [3]

COC(=O)Nc1ccc(-c2cnc3ccc(C(=O)N(CC#N)c4ccc(Cl)c(OC)c4)cn23)cn1 [Compound 90, methyl N-[5-[6-[(4-chloro-3-methoxy-phenyl)-(cyanomethyl)carbamoyl]imidazo[1,2-a]pyridin-3-yl]-2-pyridyl]carbamate]
≥ 80%: inhibition at 20 ppm [1] | pest or weed control at 200 ppm [2] | pest or weed control at 200 ppm [3]

COCN(C(=O)c1ccc2ncc(-c3ccc(NC(=O)OC)nc3)n2c1)c1ccc(F)c(OC)c1 [Compound 93, methyl N-[5-[6-[(4-fluoro-3-methoxy-phenyl)-(methoxymethyl)carbamoyl]imidazo[1,2-a]pyridin-3-yl]-2-pyridyl]carbamate]
≥ 80%: inhibition at 20 ppm [1] | pest or weed control at 200 ppm [2] | pest or weed control at 200 ppm [3]

COCN(C(=O)c1cc(C)c2ncc(-c3ccc(NC(=O)OC)nc3)n2c1)c1ccc(F)c(OC)c1 [Compound 94, methyl N-[5-[6-[(4-fluoro-3-methoxy-phenyl)-(methoxymethyl)carbamoyl]-8-methyl-imidazo[1,2-a]pyridin-3-yl]-2-pyridyl]carbamate]
≥ 80%: inhibition at 20 ppm [1] | pest or weed control at 200 ppm [2] | pest or weed control at 200 ppm [3]

COC(=O)Nc1ccc(-c2cnc3c(C)cc(C(=O)N(C)c4ccc(F)c(OC)c4)cn23)cn1 [Compound 95, methyl N-[5-[6-[(4-fluoro-3-methoxy-phenyl)-methyl-carbamoyl]-8-methyl-imidazo[1,2-a]pyridin-3-yl]-2-pyridyl]carbamate]
≥ 80%: inhibition at 20 ppm [1] | pest or weed control at 200 ppm [2] | pest or weed control at 200 ppm [3]

COC(=O)Nc1ccc(-c2cnc3ccc(C(=O)N(C)c4ccc(F)c(O)c4)cn23)cn1 [Compound 96, methyl N-[5-[6-[(4-fluoro-3-hydroxy-phenyl)-methyl-carbamoyl]imidazo[1,2-a]pyridin-3-yl]-2-pyridyl]carbamate]
≥ 80%: inhibition at 20 ppm [1] | pest or weed control at 200 ppm [2] | pest or weed control at 200 ppm [3]

COC(=O)Nc1ccc(-c2cnc3c(Br)cc(C(=O)N(C)c4ccc(F)cc4)cn23)cn1 [Compound 98, methyl N-[5-[8-bromo-6-[(4-fluorophenyl)-methyl-carbamoyl]imidazo[1,2-a]pyridin-3-yl]-2-pyridyl]carbamate]
≥ 80%: inhibition at 20 ppm [1] | pest or weed control at 200 ppm [2] | pest or weed control at 200 ppm [3]

COC(=O)Nc1ccc(-c2cnc3c(NC(C)=O)cc(C(=O)N(C)c4ccc(F)cc4)cn23)cn1 [Compound 100, methyl N-[5-[8-acetamido-6-[(4-fluorophenyl)-methyl-carbamoyl]imidazo[1,2-a]pyridin-3-yl]-2-pyridyl]carbamate]
≥ 80%: inhibition at 20 ppm [1] | pest or weed control at 200 ppm [2] | pest or weed control at 200 ppm [3]

CCN(C(=O)c1ccc2ncc(-c3ccc(NC(=O)OC)nc3)n2c1)c1ccc(F)c(F)c1 [Compound 105, methyl N-[5-[6-[(3,4-difluorophenyl)-ethyl-carbamoyl]imidazo[1,2-a]pyridin-3-yl]-2-pyridyl]carbamate]
≥ 80%: inhibition at 20 ppm [1] | pest or weed control at 200 ppm [2] | pest or weed control at 200 ppm [3]

COC(=O)Nc1ccc(-c2cnc3ccc(C(=O)N(C)c4ccc(C#N)c(Cl)c4)cn23)cn1 [Compound 107, methyl N-[5-[6-[(3-chloro-4-cyano-phenyl)-methyl-carbamoyl]imidazo[1,2-a]pyridin-3-yl]-2-pyridyl]carbamate]
≥ 80%: inhibition at 20 ppm [1] | pest or weed control at 200 ppm [2] | pest or weed control at 200 ppm [3]
